The source of these data is patent US20030194373A1, “Angiogenesis targeting molecules” (priority 1998, published 2003).

The target in one assay is T1, αvβ3 receptor (Homo sapiens, UniProt P05106+P06756).
T1 construct: The HUVECs are known to express KDR, Flt-1 and αvβ3 receptors; host or cells: HUVEC
In words: Cell adhesion assay with HUVECs and vitronectin. In kind it is cell-based. The conditions noted are these: HUVECs, FIG. 5. The method, then: HUVECs (BioWhittaker) were cultured on gelatin-coated plates in MCDB 131 media supplemented with 15% fetal bovine serum (FBS), 4 ng/ml basic fibroblast growth factor, 10 ng/ml epidermal growth factor, and 10 U/ml heparin; cells were used in experiments at passages 2-10. The HUVECs are known to express KDR, Flt-1 and αvβ3 receptors.
HUVECs were harvested using 15 mM EDTA pH8.0, washed 3 times, and resuspended in serum-free media. 4×10^4 cells were preincubated either alone (control) or with test compound for 15 minutes at 37° C., then incubated in 96 well plates coated with known integrin ligand—eg. 5 μg/ml vitronectin (Sigma Aldrich Canada, Oakville, ON) coated 3 hours., 37° C., or RGD-ECM precoated plates (Chemicon International, Temecula, Calif.)—and blocked with 1% bovine serum albumin (BSA). Cells were allowed to adhere for 1-2 hours at 37° C. Unbound cells were removed by washing with phosphate-buffered saline (PBS) and the remaining adherent cells were fixed with 2% paraformaldehyde (30 minutes, room temperature). Adhesion was quantitated by cell staining with crystal violet followed by dye extraction with 10% acetic acid. The absorbance was measured at 595 nm in a microplate reader (Bio-Rad Laboratories, Richmond, Calif.). The sequence RGDS was used as a positive control, and RGES was used as a negative control. […]

The next assay relates to angiogenesis. The conditions noted are these: compared with fumagillin; cited from earlier work.
The next assay deals with KDR/Flk-1. The conditions noted are these: KDR/Flk-1 receptor; read-out: binding affinity to VEGF (KDR/Flk-1); cited from earlier work.
The target in the next assay is Flt-1 (Homo sapiens, UniProt P17948). The conditions noted are these: Flt-1 receptor; read-out: binding affinity to VEGF (Flt-1); cited from earlier work.
Sequence of Flt-1 (P17948 27-1338, species assumed): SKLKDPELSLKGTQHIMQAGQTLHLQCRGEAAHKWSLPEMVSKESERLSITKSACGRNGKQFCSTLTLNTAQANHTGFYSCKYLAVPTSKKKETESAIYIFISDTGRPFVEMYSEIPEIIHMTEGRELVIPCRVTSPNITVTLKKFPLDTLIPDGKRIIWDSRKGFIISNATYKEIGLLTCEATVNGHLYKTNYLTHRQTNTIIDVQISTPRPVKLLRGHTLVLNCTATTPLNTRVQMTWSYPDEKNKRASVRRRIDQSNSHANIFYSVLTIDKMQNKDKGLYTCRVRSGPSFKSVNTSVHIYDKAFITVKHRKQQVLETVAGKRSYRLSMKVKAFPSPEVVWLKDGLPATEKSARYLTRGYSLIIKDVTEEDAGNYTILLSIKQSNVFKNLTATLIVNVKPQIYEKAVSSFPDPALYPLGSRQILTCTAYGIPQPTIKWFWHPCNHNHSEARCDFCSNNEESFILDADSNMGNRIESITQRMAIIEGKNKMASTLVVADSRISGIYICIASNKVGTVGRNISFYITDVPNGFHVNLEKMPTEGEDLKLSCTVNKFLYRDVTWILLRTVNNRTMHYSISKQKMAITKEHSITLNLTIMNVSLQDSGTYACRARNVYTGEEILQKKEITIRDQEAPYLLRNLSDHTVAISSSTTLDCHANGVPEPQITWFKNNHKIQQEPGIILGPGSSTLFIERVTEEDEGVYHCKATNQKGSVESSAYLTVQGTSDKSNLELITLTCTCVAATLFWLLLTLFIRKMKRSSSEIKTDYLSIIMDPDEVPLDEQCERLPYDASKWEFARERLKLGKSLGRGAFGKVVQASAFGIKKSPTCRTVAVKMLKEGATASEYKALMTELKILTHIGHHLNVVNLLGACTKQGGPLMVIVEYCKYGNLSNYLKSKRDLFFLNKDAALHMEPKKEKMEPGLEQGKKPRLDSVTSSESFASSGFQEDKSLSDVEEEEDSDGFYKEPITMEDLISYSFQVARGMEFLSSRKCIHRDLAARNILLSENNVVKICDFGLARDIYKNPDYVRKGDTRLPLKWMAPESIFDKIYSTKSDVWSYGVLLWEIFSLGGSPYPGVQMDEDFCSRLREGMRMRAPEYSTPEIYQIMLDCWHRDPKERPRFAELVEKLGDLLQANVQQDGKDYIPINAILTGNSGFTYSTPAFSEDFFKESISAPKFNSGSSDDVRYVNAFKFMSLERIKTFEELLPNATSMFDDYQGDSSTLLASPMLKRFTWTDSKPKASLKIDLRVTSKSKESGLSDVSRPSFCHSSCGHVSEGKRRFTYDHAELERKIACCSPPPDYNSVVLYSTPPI

T1 sequence (P06756 31-889 limits assumed): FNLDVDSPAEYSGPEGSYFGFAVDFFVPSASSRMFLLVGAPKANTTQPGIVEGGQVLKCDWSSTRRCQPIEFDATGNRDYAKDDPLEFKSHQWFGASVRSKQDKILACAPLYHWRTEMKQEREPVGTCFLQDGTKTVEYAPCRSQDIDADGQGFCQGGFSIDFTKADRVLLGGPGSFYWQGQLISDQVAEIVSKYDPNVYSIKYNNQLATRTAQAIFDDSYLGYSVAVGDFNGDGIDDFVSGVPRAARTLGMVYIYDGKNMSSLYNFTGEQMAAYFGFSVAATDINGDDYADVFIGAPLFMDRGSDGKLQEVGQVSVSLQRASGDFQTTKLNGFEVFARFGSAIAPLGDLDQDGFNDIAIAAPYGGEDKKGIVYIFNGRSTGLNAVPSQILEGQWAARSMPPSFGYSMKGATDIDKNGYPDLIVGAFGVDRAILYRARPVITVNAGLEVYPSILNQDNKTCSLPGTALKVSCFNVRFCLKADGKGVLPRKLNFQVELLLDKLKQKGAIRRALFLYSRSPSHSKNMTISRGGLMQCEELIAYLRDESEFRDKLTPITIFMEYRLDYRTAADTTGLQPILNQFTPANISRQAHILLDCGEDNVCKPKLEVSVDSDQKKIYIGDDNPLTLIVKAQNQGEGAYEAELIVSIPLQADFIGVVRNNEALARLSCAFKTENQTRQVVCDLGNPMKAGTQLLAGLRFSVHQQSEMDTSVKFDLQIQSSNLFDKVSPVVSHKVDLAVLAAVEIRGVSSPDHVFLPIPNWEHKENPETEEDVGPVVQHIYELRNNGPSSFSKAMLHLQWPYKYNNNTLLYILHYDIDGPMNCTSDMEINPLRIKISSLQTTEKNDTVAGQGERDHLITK
T1 sequence (P06756 891-1048 partner limits assumed): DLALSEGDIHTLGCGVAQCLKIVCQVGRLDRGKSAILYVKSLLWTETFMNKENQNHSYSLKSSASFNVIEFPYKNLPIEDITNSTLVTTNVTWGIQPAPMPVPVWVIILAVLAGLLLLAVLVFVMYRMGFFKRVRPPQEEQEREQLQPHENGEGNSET
T1 sequence (P05106 27-788): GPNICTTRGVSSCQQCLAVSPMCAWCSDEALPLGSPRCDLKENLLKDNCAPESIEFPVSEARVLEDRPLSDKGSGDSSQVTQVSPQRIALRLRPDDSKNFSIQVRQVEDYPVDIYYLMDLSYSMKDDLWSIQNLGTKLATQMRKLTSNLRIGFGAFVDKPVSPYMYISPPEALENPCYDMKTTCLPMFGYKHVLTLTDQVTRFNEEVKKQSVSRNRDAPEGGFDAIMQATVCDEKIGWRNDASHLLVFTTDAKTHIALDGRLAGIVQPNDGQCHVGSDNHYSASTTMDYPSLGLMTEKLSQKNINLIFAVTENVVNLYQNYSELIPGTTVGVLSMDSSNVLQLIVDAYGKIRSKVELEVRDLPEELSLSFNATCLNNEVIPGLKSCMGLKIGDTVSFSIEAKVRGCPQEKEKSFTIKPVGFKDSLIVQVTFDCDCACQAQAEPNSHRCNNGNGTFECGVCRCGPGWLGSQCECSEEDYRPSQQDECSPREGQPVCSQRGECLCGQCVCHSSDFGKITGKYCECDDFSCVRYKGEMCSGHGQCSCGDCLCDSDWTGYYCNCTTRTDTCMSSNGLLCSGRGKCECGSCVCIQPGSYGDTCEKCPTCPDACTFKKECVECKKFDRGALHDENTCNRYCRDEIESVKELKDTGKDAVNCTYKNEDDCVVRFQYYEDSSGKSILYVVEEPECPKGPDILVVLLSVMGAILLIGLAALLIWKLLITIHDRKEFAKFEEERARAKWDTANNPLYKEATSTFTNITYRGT

Regarding R-G-D-S [RGDS, reference compound], on αvβ3 receptor (vitronectin coated plate), the “effect on HUVEC binding to vitronectin / affinity for αvβ3 receptor” value is recorded as “eliminated the binding”. The inhibition of binding at αvβ3 receptor (vitronectin) is given as 100%.
On to `CO[C@@H]1[C@H](OC(=O)NC(=O)CCl)CC[C@]2(CO2)[C@H]1[C@@]1(C)O[C@@H]1CC=C(C)C` [TNP-470, O-(chloroacetylcarbamoyl)fumagillol], for which, in the assay with angiogenesis, the “potency as inhibitor of angiogenesis relative to fumagillin” value is 50 times.
With `CO[C@@H]1C(=O)CC[C@]2(CO2)[C@@]1(O)[C@@]1(C)O[C@@H]1CC=C(C)C` [Ovalicin], the “potency as inhibitor of angiogenesis relative to fumagillin” value in the assay with angiogenesis is on record as 50 times.
Regarding VEGF, the Kd at KDR/Flk-1 was 125 pM; at Flt-1 it was 25 pM.
